System: Staphylococcus aureus ATCC 33591
Test: Adherence of bacteria on catheter segments
Type: cell-based
Conditions: against the tested organisms
Method: In addition to fibrinolytic activity, antimicrobial activity of the 1% LMW-DexS (8 kDa) treated catheters was evaluated. In this test, adherence of gram positive bacteria Staphylococcus aureus ATCC 33591, on the catheter segments having immobilized enzyme uPA stabilized with 1% LMW-DexS (8 kDa), along with the antimicrobial agents such as gentian violet (0.6%) and chlorhexidine dodecanoate was compared to similarly treated catheter segments but without the LMW-DexS (8 kDa) stabilized enzyme.

| Structure (SMILES) | antimicrobial activity after attachment of LMW-DexS (8 kDa) stabilized urokinase |
| --- | --- |
| CCCCCCCCCCCC(=O)O.NC(=NCCCCCCN=C(N)N=C(N)Nc1ccc(Cl)cc1)N=C(N)Nc1ccc(Cl)cc1 [chlorhexidine dodecanoate] | not compromised |
| CN(C)c1ccc(C(=C2C=CC(=[N+](C)C)C=C2)c2ccc(N(C)C)cc2)cc1 [gentian violet] | not compromised |

Reference: patent US9333280B2, “Stabilized enzyme compositions” (Teleflex Medical Incorporated, priority 2009, dated 2016)
